# Data published in patent publication US20090170937A1, “Amino Acid Derivatives” (Proximagen Ltd., priority 2006, published 2009).
# Non-standard residues stand in square brackets, D forms with d. Residues, ends and D or L forms follow the SMILES beside them. *: point of attachment. Dopa = N[C@@H](Cc1ccc(O)c(O)c1)C(=O)O; αMeF = C[C@](N)(Cc1ccccc1)C(=O)O; Aic = NC1(C(=O)O)Cc2ccccc2C1; Ac6c = NC1(C(=O)O)CCCCC1; Ac5c = NC1(C(=O)O)CCCC1; Ac4c = NC1(C(=O)O)CCC1; Ac3c = NC1(C(=O)O)CC1; Aib = CC(C)(N)C(=O)O; OcHex = C1CCC(O*)CC1; OBn = c1ccc(CO*)cc1; OiPr = CC(C)O*
# Tested on: 6-OHDA-lesioned rats
# Assay: Induction of rotational activity in 6-OHDA-lesioned rats
# Format: in vivo, Male Wistar rats
# Details: i.p., 63.4 μmole/kg, after benserazide 10 mg/kg; active = >10 turns per 10 minutes
row,SMILES,duration of activity (as % of L-DOPA duration of activity) [%]
1,"COC(=O)[C@H](Cc1ccc(O)c(O)c1)NC(=O)C(C)(C)N.Cl [Example 1, 1-[(S)-2-(3,4-Dihydroxyphenyl)-1-methoxycarbonylethylcarbamoyl]-1-methyl-ethylammonium Chloride] (H-[Aib]-[Dopa]-OMe)",63

# Same assay, conditions: p.o., 63.4 μmole/kg, after benserazide 10 mg/kg; active = >10 turns per 10 minutes
row,SMILES,duration of activity (as % of L-DOPA duration of activity) [%]
1,"COC(=O)[C@H](Cc1ccc(OC(C)=O)c(OC(C)=O)c1)NC(=O)C(C)(C)N.Cl [Example 2, 1-[(S)-2-(3,4-Diacetoxyphenyl)-1-methoxycarbonylethylcarbamoyl]-1-methyl-ethylammonium Chloride]",73
2,"CC(C)(N)C(=O)N[C@@H](Cc1ccc(O)c(O)c1)C(=O)OCc1ccccc1.Cl [Example 3, 1-[(S)-1-Benzyloxycarbonyl-2-(3,4-dihydroxyphenyl)-ethylcarbamoyl]-1-methyl-ethylammonium Chloride] (H-[Aib]-[Dopa]-OBn)",38
3,"COC(=O)[C@H](Cc1ccc(O)c(O)c1)NC(=O)C1(N)CCCCC1.Cl [Example 4, 1-[(S)-2-(3,4-Dihydroxy-phenyl)-1-methoxycarbonyl-ethylcarbamoyl]-cyclohexyl-ammonium Chloride] (H-[Ac6c]-[Dopa]-OMe)",84
4,"COC(=O)[C@H](Cc1ccc(OC(C)=O)c(OC(C)=O)c1)NC(=O)C1(N)CCCCC1.Cl [Example 5, 1-[(S)-2-(3,4-Diacetoxyphenyl)-1-methoxycarbonylethylcarbamoyl]-cyclohexyl-ammonium Chloride]",42
5,"CC(C)(N)C(=O)N[C@@H](Cc1ccc(O)c(O)c1)C(=O)O.Cl [Example 6, 1-[(S)-1-Carboxy-2-(3,4-dihydroxyphenyl)-ethylcarbamoyl]-1-methylethyl-ammonium Chloride] (H-[Aib]-[Dopa]-OH)",57
6,"COC(=O)[C@H](Cc1ccc(O)c(O)c1)NC(=O)C1(N)CCCC1.Cl [Example 7, 1-[(S)-2-(3,4-Dihydroxyphenyl)-1-methoxycarbonylethylcarbamoyl]-cyclopentyl-ammonium Chloride] (H-[Ac5c]-[Dopa]-OMe)",97
7,"COC(=O)[C@H](Cc1ccc(OC(C)=O)c(OC(C)=O)c1)NC(=O)C1(N)CCCC1.Cl [Example 8, 1-[(S)-2-(3,4-Diacetoxyphenyl)-1-methoxycarbonylethylcarbamoyl]-cyclopentyl-ammonium Chloride]",44
8,"CC(=O)Oc1ccc(C[C@H](NC(=O)C(C)(C)N)C(=O)O)cc1OC(C)=O.Cl [Example 9, 1-[(S)-1-Carboxy-2-(3,4-diacetoxyphenyl)-ethylcarbamoyl]-1-methylethyl-ammonium Chloride]",45
9,COC(=O)[C@H](Cc1ccc(O)c(O)c1)NC(=O)C1(N)CCC1.Cl [Example 10] (H-[Ac4c]-[Dopa]-OMe),73
10,"COC(=O)[C@H](Cc1ccc(OC(C)=O)c(OC(C)=O)c1)NC(=O)C1(N)CCC1.Cl [Example 11, 1-[(S)-2-(3,4-Diacetoxyphenyl)-1-methoxycarbonylethylcarbamoyl]-cyclobutyl-ammonium Chloride]",67
11,"COC(=O)[C@H](Cc1ccc(O)c(O)c1)NC(=O)[C@@](C)(N)Cc1ccccc1.Cl [Example 12, (S)-1-[(S)-2-(3,4-Dihydroxyphenyl)-1-methoxycarbonyl-ethylcarbamoyl]-1-methyl-2-phenylethylammonium Chloride] (H-[αMeF]-[Dopa]-OMe)",52
12,"C[C@](N)(Cc1ccccc1)C(=O)N[C@@H](Cc1ccc(O)c(O)c1)C(=O)O.Cl [Example 13, (S)-1-[(S)-1-Carboxy-2-(3,4-dihydroxyphenyl)-ethylcarbamoyl]-1-methyl-2-phenylethylammonium Chloride] (H-[αMeF]-[Dopa]-OH)",40
13,"Cl.NC1(C(=O)N[C@@H](Cc2ccc(O)c(O)c2)C(=O)O)CCCC1 [Example 14, 1-[(S)-1-Carboxy-2-(3,4-dihydroxyphenyl)-ethylcarbamoyl]-cyclopentyl-ammonium Chloride] (H-[Ac5c]-[Dopa]-OH)",62
14,"COC(=O)[C@H](Cc1ccc(O)c(O)c1)NC(=O)C1(N)Cc2ccccc2C1.Cl [Example 15, 2-[(S)-2-(3,4-Dihydroxyphenyl)-1-methoxycarbonylethylcarbamoyl]-indan-2-yl-ammonium Chloride] (H-[Aic]-[Dopa]-OMe)",31
15,"COC(=O)[C@H](Cc1ccc(OC(C)=O)c(OC(C)=O)c1)NC(=O)C1(N)Cc2ccccc2C1.Cl [Example 16, 2-[(S)-2-(3,4-Diacetoxyphenyl)-1-methoxycarbonylethylcarbamoyl]-indan-2-yl-ammonium Chloride]",21
16,"CC(C)OC(=O)[C@H](Cc1ccc(O)c(O)c1)NC(=O)C(C)(C)N.Cl [Example 17, 1-[(S)-2-(3,4-Dihydroxyphenyl)-1-isopropoxycarbonylethylcarbamoyl]-1-methyl-ethylammonium Chloride] (H-[Aib]-[Dopa]-OiPr)",72
17,CC(C)(N)C(=O)N[C@@H](Cc1ccc(O)c(O)c1)C(=O)OC1CCCCC1.Cl [Example 18] (H-[Aib]-[Dopa]-OcHex),70
18,"Cl.NC1(C(=O)N[C@@H](Cc2ccc(O)c(O)c2)C(=O)O)CCC1 [Example 20, 1-[(S)-1-Carboxy-2-(3,4-dihydroxyphenyl)-ethylcarbamoyl]-cyclobutyl-ammonium Chloride] (H-[Ac4c]-[Dopa]-OH)",37
19,"Cl.NC1(C(=O)N[C@@H](Cc2ccc(O)c(O)c2)C(=O)O)CC1 [Example 21, 1-[(S)-1-Carboxy-2-(3,4-dihydroxyphenyl)-ethylcarbamoyl]-cyclopropyl Ammonium Chloride] (H-[Ac3c]-[Dopa]-OH)",76
20,"COC(=O)[C@H](Cc1ccc(OC(C)=O)c(OC(C)=O)c1)NC(=O)[C@@](C)(N)Cc1ccccc1.Cl [Example 22, (S)-1-[(S)-2-(3,4-Diacetoxyphenyl)-1-methoxycarbonylethylcarbamoyl]-1-methyl-2-phenylethylammonium Chloride]",19
21,"CC(C)CCOC(=O)[C@H](Cc1ccc(O)c(O)c1)NC(=O)C(C)(C)N.Cl [Example 23, 1-[(S)-2-(3,4-Dihydroxyphenyl)-1-(3-methylbutoxycarbonyl)-ethylcarbamoyl]-1-methylethylammonium Chloride]",49
22,"COC(=O)[C@H](Cc1ccc(OC(=O)CC(C)(C)C)c(OC(=O)CC(C)(C)C)c1)NC(=O)C1(N)CCCCC1.Cl [Example 24, 1-{(S)-2-[3,4-Bis-(3,3-dimethylbutyryloxy)-phenyl]-1-methoxycarbonyl-ethylcarbamoyl}-cyclohexylammonium Chloride]",36
